Source: patent publication US20240400572A1, “COMPOUNDS AND METHODS FOR TREATING CANCERS THAT ARE MGMT DEFICIENT REGARDLESS OF MMR STATUS” (Yale University, priority 2021, published 2024)
“And” between values parts separate entries of the source, which are not always exact repeats. Equal entries are not always repeated. Where two headings read alike, the source gives them in different places.

Experiments:
[1] = Brain distribution study; format: in vivo, male C57BL/6 mice
Method: (§1) Compound KL50 dosing solution: 3.39% DMSO+96.61% (10% HP-β-CD in saline) at 2 mg/mL; • 1) Weigh 17.39 mg of compound KL50 into a clean tube. • 2) Add 0.295 mL DMSO into the tube containing the compound. • 3) Vortex the tube for 3 min and sonicate it for 4 min. • 4) Add 8.400 mL 10% HP-β-CD in saline into the tube and vortex the tube for 3 min. Compound I-1 dosing solution: 3.39% DMSO+96.61% (10% HP-β-CD in saline) at 2 mg/mL; • 1) Weigh 16.86 mg Compound I-1 into a clean tube. • 2) Add 0.286 mL DMSO into the tube containing the compound. • 3) Vortex the tube for 3 min and sonicate it for 4 min. • 4) Add 8.144 mL 10% HP-β-CD in saline into the tube and vortex the tube for 3 min.
(§2) The in-vivo pharmacokinetic and brain distribution study was conducted under the following parameters. Twenty seven C57BL/6 male mice were purchased from Shanghai JiHui Laboratory Animal Co. LTD. Each mouse weighted from 16 g to 17 g. The mice were fasted overnight and fed post 4 hr sampling. Compound KL50 and Compound I-I were administered via oral gavage (PO) at a dose of 20 mg/kg (10 mL/kg). After dosing, sampling was completed at 0.083, 0.167, 0.333, 0.5, 0.75, 1, 2, 4 and 8 hr post dose, with three mice sacrificed at each time point.
(§3) Terminal bleeding for plasma and brain was completed at each time point. Approximately 110 μL blood per time point was collected into a K2EDTA tube via the facial vein. The blood sample was put on wet ice and centrifuged to obtain plasma sample (2000 g, 5 min under 4° C.) within 15 minutes. Plasma samples were acidified with 6 μL of formic acid for every 54 μL of plasma. After blood collection, a mid-line incision was made in the animal's scalp and the skin was retracted. The skull overlying the brain was removed. Then, the whole brain was collected, rinsed with cold saline, dried on filtrate paper, and weighed; and then snap frozen by placing the brain into dry-ice. Plasma samples were stored at approximately −70° C. until analysis. Brain tissue was homogenized with 3 volumes (v/w) of PBS (1% FA) and then analyzed with LC-MS/MS. The concentration of study drug was corrected with a dilution factor of four as following: Brain concentration=brain homogenate conc.×4, assuming 1 g wet brain tissue equals to 1 mL

[2] = Pharmacokinetic study, plasma; format: in vivo; details: male C57BL/6 mice
Method: as §1, §2, §3

[3] = male, C57BL/6, mouse, brain/plasma, po, 20 mg/kg, PO 20 mg/kg, male C57BL/6 mice, N=3, read-out: Brain Concentration/Plasma Concentration, Mean
[4] = male, C57BL/6, mouse, brain/plasma, po, 20 mg/kg, PO 20 mg/kg, male C57BL/6 mice, read-out: Brain Concentration/Plasma Concentration, Individuals
[5] = mouse, brain, PO 20 mg/kg, male C57BL/6 mice

CNC(=O)c1ncn2c(=O)n(CCF)nnc12 [Compound I-1, 3-(2-fluoroethyl)-N-methyl-4-oxo-3H,4H-imidazo[4,3-d][1,2,3,5]tetrazine-8-carboxamide]
Kp at 0.5 hr ([1]; male, C57BL/6, mouse, brain/plasma, po, 20 mg/kg, PO 20 mg/kg, male C57BL/6 mice, 0.5 hr, read-out: Brain Concentration/Plasma Concentration, Individuals): 0.525 | Kp at 0.75 hr [1, 3]: 0.586 | Kp at 0.75 hr [1, 4]: 0.575 | Kp at 1 hr [1, 3]: 0.559 | Kp at 1 hr [1, 4]: 0.523 | Kp at 2 hr [1, 3]: 0.468 | Kp at 2 hr [1, 4]: 0.432 | Cmax [1, 5]: 7210 ng/g | MRT inf [1, 5]: 31.6 min | Tmax [1, 5]: 10 min | half-life [1, 5]: 21.1 min | concentration in brain tissue compared with KL50 (in words) ([1]; oral administration to mice): much larger concentration in brain tissue | plasma Concentration, Individuals ([2]; PO 20 mg/kg, 0.083 hr, 20 mg/kg): 20300 ng/mL and 20500 ng/mL | plasma Concentration, Individuals ([2]; PO 20 mg/kg, 0.167 hr, 20 mg/kg): 15000 ng/mL and 16600 ng/mL | plasma Concentration, Individuals ([2]; PO 20 mg/kg, 0.333 hr, 20 mg/kg): 11300 ng/mL and 13400 ng/mL | plasma Concentration, Individuals ([2]; PO 20 mg/kg, 0.5 hr, 20 mg/kg): 7050 ng/mL and 7190 ng/mL | plasma Concentration, Individuals ([2]; PO 20 mg/kg, 0.75 hr, 20 mg/kg): 4010 ng/mL and 3430 ng/mL | plasma Concentration, Individuals ([2]; PO 20 mg/kg, 1 hr, 20 mg/kg): 1520 ng/mL and 2430 ng/mL | plasma Concentration, Individuals ([2]; PO 20 mg/kg, 2 hr, 20 mg/kg): 359 ng/mL and 714 ng/mL and 185 ng/mL | plasma Concentration, Individuals ([2]; PO 20 mg/kg, 4 hr, 20 mg/kg): 5.01 ng/mL and 2.42 ng/mL and 3.21 ng/mL | plasma Concentration, Individuals ([2]; PO 20 mg/kg, 8 hr, 20 mg/kg): 2.65 ng/mL and 5.63 ng/mL and 7.33 ng/mL | concentration at 0.083 hr ([2]; male, C57BL/6, mouse, plasma, po, 20 mg/kg, 0.083 hr, N=3, read-out: plasma Concentration, Mean): 20700 ng/mL | concentration at 0.083 hr ([2]; male, C57BL/6, mouse, plasma, po, 20 mg/kg, 0.083 hr, read-out: plasma Concentration, Individuals): 21200 ng/mL | concentration at 0.167 hr ([2]; male, C57BL/6, mouse, plasma, po, 20 mg/kg, 0.167 hr, N=3, read-out: plasma Concentration, Mean): 14300 ng/mL | concentration at 0.167 hr ([2]; male, C57BL/6, mouse, plasma, po, 20 mg/kg, 0.167 hr, read-out: plasma Concentration, Individuals): 11300 ng/mL | concentration at 0.333 hr ([2]; male, C57BL/6, mouse, plasma, po, 20 mg/kg, 0.333 hr, N=3, read-out: plasma Concentration, Mean): 11200 ng/mL | concentration at 0.333 hr ([2]; male, C57BL/6, mouse, plasma, po, 20 mg/kg, 0.333 hr, read-out: plasma Concentration, Individuals): 8830 ng/mL | concentration at 0.5 hr ([2]; male, C57BL/6, mouse, plasma, po, 20 mg/kg, 0.5 hr, N=3, read-out: plasma Concentration, Mean): 6850 ng/mL | concentration at 0.5 hr ([2]; male, C57BL/6, mouse, plasma, po, 20 mg/kg, 0.5 hr, read-out: plasma Concentration, Individuals): 6300 ng/mL | concentration at 0.75 hr ([2]; male, C57BL/6, mouse, plasma, po, 20 mg/kg, 0.75 hr, N=3, read-out: plasma Concentration, Mean): 3810 ng/mL | concentration at 0.75 hr ([2]; male, C57BL/6, mouse, plasma, po, 20 mg/kg, 0.75 hr, read-out: plasma Concentration, Individuals): 3980 ng/mL | concentration at 1 hr ([2]; male, C57BL/6, mouse, plasma, po, 20 mg/kg, 1 hr, N=3, read-out: plasma Concentration, Mean): 2040 ng/mL | concentration at 1 hr ([2]; male, C57BL/6, mouse, plasma, po, 20 mg/kg, 1 hr, read-out: plasma Concentration, Individuals): 2180 ng/mL | concentration at 2 hr ([2]; male, C57BL/6, mouse, plasma, po, 20 mg/kg, 2 hr, N=3, read-out: plasma Concentration, Mean): 419 ng/mL | concentration at 4 hr ([2]; male, C57BL/6, mouse, plasma, po, 20 mg/kg, 4 hr, N=3, read-out: plasma Concentration, Mean): 3.55 ng/mL | concentration at 8 hr ([2]; male, C57BL/6, mouse, plasma, po, 20 mg/kg, 8 hr, N=3): 5.2 ng/mL | AUC(0-inf) ([2]; mouse, plasma, PO 20 mg/kg): 9680 ng·h/mL | AUC(0-t) ([2]; mouse, plasma, PO 20 mg/kg): 9680 ng·h/mL | Cmax ([2]; mouse, plasma, PO 20 mg/kg): 20700 ng/mL | MRT inf ([2]; mouse, plasma, PO 20 mg/kg): 32.2 min | Tmax ([2]; mouse, plasma, PO 20 mg/kg): 4.98 min | half-life ([2]; mouse, plasma, PO 20 mg/kg): 37.3 min
